Results as given in ChEMBL document CHEMBL4811319, “Optimization of 1,4-bis(arylsulfonamido)naphthalene-N,N'-diacetic acids as inhibitors of Keap1-Nrf2 protein-protein interaction to suppress neuroinflammation” (Bioorg Med Chem, 2021).
The source made the active and inactive calls. No cut-off for these calls is given here.

Assays:
Keap1/Nrf2 [1] = molecular target: T1, Keap1/Nrf2 (Homo sapiens, UniProt Q14145); assay: Inhibition of recombinant human KEAP1 Kelch domain (321 to 609 residues) expressed in Escherichia coli BL21 (DE3)pLysS cells interaction with FITC-9mer Nrf2 (unknown origin) incubated for 30 mins under shaking condition by fluorescence polarization assay
T1 sequence (Q16236 whole entry, the tested form may be a part): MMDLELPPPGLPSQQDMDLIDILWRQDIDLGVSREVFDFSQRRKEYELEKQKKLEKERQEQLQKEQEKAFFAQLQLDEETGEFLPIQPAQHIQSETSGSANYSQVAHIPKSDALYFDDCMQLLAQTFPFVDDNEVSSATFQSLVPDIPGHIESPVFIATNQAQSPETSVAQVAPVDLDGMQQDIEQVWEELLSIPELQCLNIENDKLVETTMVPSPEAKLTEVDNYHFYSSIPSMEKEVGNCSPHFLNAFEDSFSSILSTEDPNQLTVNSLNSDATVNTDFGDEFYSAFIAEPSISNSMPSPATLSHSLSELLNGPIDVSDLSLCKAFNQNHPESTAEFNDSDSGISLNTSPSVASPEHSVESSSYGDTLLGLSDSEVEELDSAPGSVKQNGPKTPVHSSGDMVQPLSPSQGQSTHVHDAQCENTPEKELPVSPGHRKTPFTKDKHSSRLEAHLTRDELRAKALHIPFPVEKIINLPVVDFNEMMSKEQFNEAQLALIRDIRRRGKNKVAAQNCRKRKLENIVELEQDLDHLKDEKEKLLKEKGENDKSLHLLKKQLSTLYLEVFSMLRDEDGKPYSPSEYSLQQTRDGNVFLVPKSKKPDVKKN
T1 sequence (Q14145 whole entry, the tested form may be a part): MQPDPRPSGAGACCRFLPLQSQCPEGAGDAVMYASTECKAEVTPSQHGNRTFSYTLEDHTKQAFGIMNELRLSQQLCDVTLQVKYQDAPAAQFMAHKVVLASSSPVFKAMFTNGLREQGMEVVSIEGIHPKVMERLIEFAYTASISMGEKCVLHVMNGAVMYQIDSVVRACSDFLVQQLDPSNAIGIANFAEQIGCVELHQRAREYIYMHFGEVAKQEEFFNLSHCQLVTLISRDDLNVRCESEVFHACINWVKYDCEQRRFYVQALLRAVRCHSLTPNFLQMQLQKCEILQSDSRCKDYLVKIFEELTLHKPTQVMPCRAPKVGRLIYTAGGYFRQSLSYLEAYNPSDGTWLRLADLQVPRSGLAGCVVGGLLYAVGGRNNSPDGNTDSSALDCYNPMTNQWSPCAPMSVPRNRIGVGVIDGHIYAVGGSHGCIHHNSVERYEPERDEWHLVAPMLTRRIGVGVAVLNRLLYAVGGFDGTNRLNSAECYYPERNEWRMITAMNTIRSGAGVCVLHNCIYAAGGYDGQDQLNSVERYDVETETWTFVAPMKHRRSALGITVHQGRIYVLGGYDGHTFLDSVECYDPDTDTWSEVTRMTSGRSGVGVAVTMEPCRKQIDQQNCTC

[2] = molecular target: T2, Nuclear factor erythroid 2-related factor 2 (Mus musculus) (UniProt Q60795); assay: Activation of Nrf2 in mouse BV-2 cells assessed as increase in HO-1 mRNA level at 10 uM measured within 6 hrs by qRT-PCR analysis relative to negative control; format: cell-based; conditions: time hrs <6
T2 sequence (whole entry): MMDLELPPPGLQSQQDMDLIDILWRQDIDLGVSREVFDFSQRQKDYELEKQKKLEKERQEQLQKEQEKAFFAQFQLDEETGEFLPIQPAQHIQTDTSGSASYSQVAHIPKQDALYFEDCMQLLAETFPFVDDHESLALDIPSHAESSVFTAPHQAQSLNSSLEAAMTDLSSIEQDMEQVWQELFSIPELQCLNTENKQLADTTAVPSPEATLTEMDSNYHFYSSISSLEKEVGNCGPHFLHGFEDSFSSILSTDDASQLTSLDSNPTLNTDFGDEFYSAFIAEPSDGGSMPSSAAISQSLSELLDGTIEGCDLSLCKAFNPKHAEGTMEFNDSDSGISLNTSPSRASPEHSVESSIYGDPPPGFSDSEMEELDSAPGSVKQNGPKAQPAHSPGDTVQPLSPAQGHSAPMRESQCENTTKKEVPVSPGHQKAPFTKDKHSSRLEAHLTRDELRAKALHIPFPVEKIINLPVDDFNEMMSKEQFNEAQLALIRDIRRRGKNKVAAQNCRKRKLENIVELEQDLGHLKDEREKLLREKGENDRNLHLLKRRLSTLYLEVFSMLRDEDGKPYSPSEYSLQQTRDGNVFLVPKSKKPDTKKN

[3] = molecular target: T2, Nuclear factor erythroid 2-related factor 2 (Mus musculus); assay: Activation of Nrf2 in mouse BV-2 cells assessed as increase in HO-1 mRNA level at 10 uM measured after 24 hrs by qRT-PCR analysis relative to control; format: cell-based; conditions: filed as activator
HepG2 = assay: Cytotoxicity against human HepG2 cells up to 50 uM by Alamar blue assay; format: cell-based
BV-2 [4] = assay: Cytotoxicity against mouse BV-2 cells up to 50 uM by Alamar blue assay; format: cell-based
[5] = molecular target: Keap1/Nrf2 (Homo sapiens) (UniProt Q16236+Q14145); assay: Inhibition of Keap1-Nrf2 protein-protein interaction in human HepG2-ARE-C8 cells assessed as Nrf2 activation mediated ARE-driven luciferase activity by measuring fold change at 10 uM measured after 24 hrs by luciferase reporter gene assay; format: cell-based
Sequence of Keap1/Nrf2 (Homo sapiens) (Q14145 whole entry, looked up, the tested form may be a part): as the sequence (Q14145 whole entry, the tested form may be a part) above
Sequence of Keap1/Nrf2 (Homo sapiens) (Q16236 whole entry, looked up, the tested form may be a part): as the sequence (Q16236 whole entry, the tested form may be a part) above

Keap1/Nrf2 [6] = molecular target: T1, Keap1/Nrf2; assay: Inhibition of recombinant human KEAP1 Kelch domain (321 to 609 residues) expressed in Escherichia coli BL21 (DE3)pLysS cells interaction with FITC-9mer Nrf2 (unknown origin) incubated for 30 mins under shaking condition by TR-FRET assay
[7] = molecular target: T2, Nuclear factor erythroid 2-related factor 2 (Mus musculus); assay: Activation of Nrf2 in mouse BV-2 cells assessed as increase in NQO-1 mRNA level at 10 uM measured after 6 hrs by qRT-PCR analysis relative to control; format: cell-based; conditions: filed as activator
[8] = molecular target: T2, Nuclear factor erythroid 2-related factor 2 (Mus musculus); assay: Activation of Nrf2 in mouse BV-2 cells assessed as increase in NQO-1 mRNA level at 10 uM measured after 24 hrs by qRT-PCR analysis relative to control; format: cell-based; conditions: filed as activator
[9] = molecular target: T2, Nuclear factor erythroid 2-related factor 2 (Mus musculus); assay: Activation of Nrf2 in mouse BV-2 cells assessed as increase in HO-1 mRNA level at 1 to 10 uM measured up to 24 hrs by qRT-PCR analysis relative to control; format: cell-based
[10] = molecular target: T2, Nuclear factor erythroid 2-related factor 2 (Mus musculus); assay: Activation of Nrf2 in mouse BV-2 cells assessed as increase in NQO-1 mRNA level measured after 6 to 24 hrs by qRT-PCR analysis; format: cell-based; conditions: filed as activator, dose 1-10 µM, time 6-24 hrs
[11] = molecular target: T2, Nuclear factor erythroid 2-related factor 2 (Mus musculus); assay: Activation of Nrf2 in mouse BV-2 cells assessed as increase in NQO-1 mRNA level at 1 to 10 uM by qRT-PCR analysis; format: cell-based; conditions: filed as activator, dose 1-10 µM, time 6-24 hrs
[12] = molecular target: T2, Nuclear factor erythroid 2-related factor 2 (Mus musculus); assay: Activation of Nrf2 in mouse BV-2 cells assessed as upregulation of HO-1 protein expression at 10 uM measured after 24 hrs by Western blot analysis relative to control; format: cell-based; conditions: filed as activator
[13] = molecular target: T2, Nuclear factor erythroid 2-related factor 2 (Mus musculus); assay: Activation of Nrf2 in mouse BV-2 cells assessed as upregulation of NQO-1 protein expression at 10 uM measured after 24 hrs by Western blot analysis relative to control; format: cell-based; conditions: filed as activator
[14] = molecular target: T2, Nuclear factor erythroid 2-related factor 2 (Mus musculus); assay: Activation of Nrf2 in mouse BV-2 cells assessed as upregulation of HO-1 protein expression measured after 24 hrs by Western blot analysis; format: cell-based; conditions: filed as activator
[15] = molecular target: T2, Nuclear factor erythroid 2-related factor 2 (Mus musculus); assay: Activation of Nrf2 in mouse BV-2 cells assessed as upregulation of NQO-1 protein expression measured after 24 hrs by Western blot analysis; format: cell-based; conditions: filed as activator
[16] = molecular target: T2, Nuclear factor erythroid 2-related factor 2 (Mus musculus); assay: Activation of Nrf2 in mouse BV-2 cells assessed as increase in translocation of Nrf2 into nucleus at 10 uM measured after 6 to 24 hrs by […]; format: cell-based; conditions: filed as activator, time 6-24 hrs
[17] = molecular target: T2, Nuclear factor erythroid 2-related factor 2 (Mus musculus); assay: Activation of Nrf2 in mouse BV-2 cells assessed as increase in DNA binding activity at 10 uM measured after 6 hrs by spectrophotometric analysis relative to control; format: cell-based; conditions: filed as activator
[18] = molecular target: T2, Nuclear factor erythroid 2-related factor 2 (Mus musculus); assay: Activation of Nrf2 in mouse BV-2 cells assessed as increase in DNA binding activity at 10 uM measured after 24 hrs by spectrophotometric analysis relative to control; format: cell-based; conditions: filed as activator
BV-2 [19] = assay: Upregulation of HO-1 in mouse BV-2 cells transfected with Nrf2 shRNA at 10 uM measured after 24 hrs by qPCR analysis; format: functional, cell-based
BV-2 [20] = assay: Upregulation of NQO-1 in mouse BV-2 cells transfected with Nrf2 shRNA at 10 uM measured after 24 hrs by qPCR analysis; format: functional, cell-based
BV-2 [21] = assay: Antiinflammatory activity in mouse BV-2 cells assessed as suppression of LPS-induced […] mRNA expression at 10 uM measured up to 24 hrs by qRT-PCR analysis; format: functional, cell-based
BV-2 [22] = assay: Antiinflammatory activity in mouse BV-2 cells assessed as suppression of LPS-induced […] protein expression at 10 uM measured up to 24 hrs by ELISA; format: functional, cell-based
BV-2 [23] = assay: Antiinflammatory activity in mouse BV-2 cells assessed as suppression of LPS-induced IL-6 mRNA expression at 10 uM measured up to 24 hrs by qRT-PCR analysis; format: functional, cell-based
BV-2 [24] = assay: Antiinflammatory activity in mouse BV-2 cells assessed as suppression of LPS-induced IL-6 protein expression at 10 uM measured up to 24 hrs by ELISA; format: functional, cell-based
BV-2 [25] = assay: Antiinflammatory activity in mouse BV-2 cells assessed as suppression of LPS-induced TNF-alpha mRNA expression at 10 uM measured up to 24 hrs by qRT-PCR analysis; format: functional, cell-based
BV-2 [26] = assay: Antiinflammatory activity in mouse BV-2 cells assessed as suppression of LPS-induced TNF-alpha protein expression at 10 uM measured up to 24 hrs by ELISA; format: functional, cell-based
[27] = molecular target: T2, Nuclear factor erythroid 2-related factor 2 (Mus musculus); assay: Activation of Nrf2 in mouse BV-2 cells assessed as upregulation of HO-1 protein expression at 20 uM measured after 24 hrs by Western blot analysis; format: cell-based; conditions: filed as activator
[28] = molecular target: T2, Nuclear factor erythroid 2-related factor 2 (Mus musculus); assay: Activation of Nrf2 in mouse BV-2 cells assessed as upregulation of NQO-1 protein expression at 20 uM measured after 24 hrs by Western blot analysis; format: cell-based; conditions: filed as activator

O=C(O)CN(c1ccc(N(CC(=O)O)S(=O)(=O)c2ccc3c(c2)CCO3)c2ccccc12)S(=O)(=O)c1ccc2c(c1)CCO2
IC50 (Keap1/Nrf2 [1]): 164 nM | fold change (FC) [2]: < 2 | fold change (FC) [3]: 4 | Activity (HepG2): Non-Toxic | Activity (BV-2 [4]): Non-Toxic

O=C(O)CN(c1ccc(N(CC(=O)O)S(=O)(=O)c2ccc(C(F)(F)F)cc2)c2ccccc12)S(=O)(=O)c1ccc(C(F)(F)F)cc1
IC50 (Keap1/Nrf2 [1]): 384 nM

O=C(O)CN(c1ccc(N(CC(=O)O)S(=O)(=O)c2cc3c(cc2Cl)OCCO3)c2ccccc12)S(=O)(=O)c1cc2c(cc1Cl)OCCO2
fold change (FC) [5]: > 2 | IC50 (Keap1/Nrf2 [1]): 144 nM | IC50 (Keap1/Nrf2 [6]): 8.9 nM | fold change (FC) [2]: < 2 | fold change (FC) [7]: 3 | fold change (FC) [8]: 18 | fold change (FC) [9]: < 2 | Activity [10]: Dose-Dependent Effect | Activity [11]: Tde | fold change (FC) [12]: 2 | fold change (FC) [13]: 3 | Activity [14]: Dose-Dependent Effect | Activity [15]: Dose-Dependent Effect | Activity (HepG2): Non-Toxic | Activity (BV-2 [4]): Non-Toxic | Activity [16]: Active | fold change (FC) [17]: 3 | fold change (FC) [18]: 3 | Activity (BV-2 [19]): inactive | Activity (BV-2 [20]): inactive | Activity (BV-2 [21]): Active | Activity (BV-2 [22]): Active | Activity (BV-2 [23]): Active | Activity (BV-2 [24]): Active | Activity (BV-2 [25]): Active | Activity (BV-2 [26]): Active

O=S(=O)(c1ccc(C(F)(F)F)cc1)N(Cc1nnn[nH]1)c1ccc(N(Cc2nnn[nH]2)S(=O)(=O)c2ccc(C(F)(F)F)cc2)c2ccccc12
IC50 (Keap1/Nrf2 [1]): 302 nM

O=S(=O)(c1ccc2c(c1)OCCO2)N(Cc1nnn[nH]1)c1ccc(N(Cc2nnn[nH]2)S(=O)(=O)c2ccc3c(c2)OCCO3)c2ccccc12
IC50 (Keap1/Nrf2 [1]): 93.5 nM | IC50 (Keap1/Nrf2 [6]): 7.2 nM | fold change (FC) [2]: < 2 | Activity (HepG2): Non-Toxic | Activity (BV-2 [4]): Non-Toxic

CN(C)C=O
Activity [27]: Active | Activity [28]: Active

O=C(O)CN(c1ccc(N(CC(=O)O)S(=O)(=O)c2ccc3c(c2)CCCO3)c2ccccc12)S(=O)(=O)c1ccc2c(c1)CCCO2
IC50 (Keap1/Nrf2 [1]): 146 nM | fold change (FC) [2]: < 2 | fold change (FC) [7]: 4 | Activity (HepG2): Non-Toxic | Activity (BV-2 [4]): Non-Toxic

O=C(O)CN(c1ccc(N(CC(=O)O)S(=O)(=O)c2ccc3c(c2)OCO3)c2ccccc12)S(=O)(=O)c1ccc2c(c1)OCO2
fold change (FC) [5]: > 2 | IC50 (Keap1/Nrf2 [1]): 149 nM | fold change (FC) [2]: < 2 | Activity (HepG2): Non-Toxic | Activity (BV-2 [4]): Non-Toxic

O=C(O)CN(c1ccc(N(CC(=O)O)S(=O)(=O)c2ccc3c(c2)OCCO3)c2ccccc12)S(=O)(=O)c1ccc2c(c1)OCCO2
IC50 (Keap1/Nrf2 [1]): 120 nM | IC50 (Keap1/Nrf2 [6]): 31.3 nM | fold change (FC) [2]: < 2 | Activity (HepG2): Non-Toxic | Activity (BV-2 [4]): Non-Toxic

CS(=O)(=O)Nc1ccc(S(=O)(=O)N(CC(=O)O)c2ccc(N(CC(=O)O)S(=O)(=O)c3ccc(NS(C)(=O)=O)cc3)c3ccccc23)cc1
IC50 (Keap1/Nrf2 [1]): 194 nM

O=C(O)CN(c1ccc(N(CC(=O)O)S(=O)(=O)c2ccc(Br)cc2)c2ccccc12)S(=O)(=O)c1ccc(Br)cc1
IC50 (Keap1/Nrf2 [1]): 235 nM

O=C(O)CN(c1ccc(N(CC(=O)O)S(=O)(=O)c2ccc(NC(=O)C(F)(F)F)cc2)c2ccccc12)S(=O)(=O)c1ccc(NC(=O)C(F)(F)F)cc1
IC50 (Keap1/Nrf2 [1]): 126 nM

O=C(O)CN(c1ccc(N(CC(=O)O)S(=O)(=O)c2ccc(N3C(=O)c4ccccc4C3=O)cc2)c2ccccc12)S(=O)(=O)c1ccc(N2C(=O)c3ccccc3C2=O)cc1
IC50 (Keap1/Nrf2 [1]): 82 nM | IC50 (Keap1/Nrf2 [6]): 11.5 nM

COc1ccc(S(=O)(=O)N(CC(=O)O)c2ccc(N(CC(=O)O)S(=O)(=O)c3ccc(OC)cc3Br)c3ccccc23)c(Br)c1
IC50 (Keap1/Nrf2 [1]): 184 nM

COc1ccc(S(=O)(=O)N(Cc2nnn[nH]2)c2ccc(N(Cc3nnn[nH]3)S(=O)(=O)c3ccc(OC)cc3)c3ccccc23)cc1
IC50 (Keap1/Nrf2 [1]): 96.7 nM | IC50 (Keap1/Nrf2 [6]): 10.8 nM
